From patent EP2526935A1, “Hydrazidomycins” (Oncotest GmbH, priority 2011, dated 2012)

Assays:
Assay type in all cases: cell-based
Enterococcus faecalis = assay: antimicrobial activity test; conditions: at a concentration of 1.0 mg/mL
Bacillus subtilis = assay: antimicrobial activity test; conditions: at a concentration of 1.0 mg/mL
[1] = system: panel of 42 human tumor cell lines; assay: modified propidium iodide cytotoxicity assay, panel of 42 human tumor cell lines; conditions: for IC50: mean over panel of 42 tumor cell lines, 15 histotypes; for IC50 values in sensitive cell lines, fold lower than the mean IC50 of all cell lines tested: on average, sensitive cell lines versus all cell lines
Excerpt: (§1) Antiproliferative and cytotoxic assays. A modified propidium iodide assay was used to determine the cytotoxic activity of compounds hydrazidomycin A, B, and C against 12 to 42 cell lines derived from solid human tumors. The test procedure has been as is known in the art. Cell lines tested were derived from patient tumors engrafted as a subcutaneously growing tumor in NMRI nu/nu mice, or obtained from the American Type Culture Collection, Rockville, MD, USA, National Cancer Institute, Bethesda, MD, USA, or Deutsche Sammlung von Mikroorganismen und Zellkulturen, Braunschweig. The IC50 was determined by four parameter non-linear curve fit after plotting compound concentration versus fluorescence intensity, and is given as the concentration of test compound that gives a response (inhibition of cell growth) half way between the top and bottom plateau of the sigmoidal concentration-response curve (i.e. the inflection point of the curve).

Pseudomonas aeruginosa = assay: antimicrobial activity test; conditions: at a concentration of 1.0 mg/mL
Mycobacerium vaccae = assay: antimicrobial activity test; conditions: at a concentration of 1.0 mg/mL
Escherichia coli = assay: antimicrobial activity test; conditions: at a concentration of 1.0 mg/mL
DIFI = assay: modified propidium iodide cytotoxicity assay; conditions: Homo sapiens, Colon
Excerpt: as §1

RKO = assay: modified propidium iodide cytotoxicity assay; conditions: Homo sapiens, Colon
Excerpt: as §1

MCF-7 = assay: modified propidium iodide cytotoxicity assay; conditions: Homo sapiens, MCF7, Breast
Excerpt: as §1

CAL-27 = assay: modified propidium iodide cytotoxicity assay; conditions: Homo sapiens, Head and neck
Excerpt: as §1

MDA-MB-231 = assay: modified propidium iodide cytotoxicity assay; conditions: Homo sapiens, Breast
Excerpt: as §1

RXF 393NL = assay: modified propidium iodide cytotoxicity assay; conditions: Homo sapiens, Kidney
Excerpt: as §1

GXF 251L = assay: modified propidium iodide cytotoxicity assay; conditions: Homo sapiens, Stomach
Excerpt: as §1

LXFL1121L = assay: modified propidium iodide cytotoxicity assay; conditions: Homo sapiens, LXFL 1121L, Lung, non-small cell
Excerpt: as §1

HCT-116 = assay: modified propidium iodide cytotoxicity assay; conditions: Homo sapiens, Colon
Excerpt: as §1

UXF 1138L = assay: modified propidium iodide cytotoxicity assay; conditions: Homo sapiens, Uterus
Excerpt: as §1

22Rv1 = assay: modified propidium iodide cytotoxicity assay; conditions: Homo sapiens, Prostate
Excerpt: as §1

MEXF 1341L = assay: modified propidium iodide cytotoxicity assay; conditions: Homo sapiens, Melanoma
Excerpt: as §1

LNCaP = assay: modified propidium iodide cytotoxicity assay; conditions: Homo sapiens, Prostate
Excerpt: as §1

NCI-H460 = assay: modified propidium iodide cytotoxicity assay; conditions: Homo sapiens, Lung, non-small cell
Excerpt: as §1

LXFA 526L = assay: modified propidium iodide cytotoxicity assay; conditions: Homo sapiens, Lung, non-small cell
Excerpt: as §1

LXFA 289L = assay: modified propidium iodide cytotoxicity assay; conditions: Homo sapiens, Lung, non-small cell
Excerpt: as §1

HT-29 = assay: modified propidium iodide cytotoxicity assay; conditions: Homo sapiens, Colon
Excerpt: as §1

PXF 1752L = assay: modified propidium iodide cytotoxicity assay; conditions: Homo sapiens, Mesothelioma
Excerpt: as §1

CXF 269L = assay: modified propidium iodide cytotoxicity assay; conditions: Homo sapiens, Colon
Excerpt: as §1

PAXF 1657L = assay: modified propidium iodide cytotoxicity assay; conditions: Homo sapiens, Pancreas
Excerpt: as §1

PXF 698L = assay: modified propidium iodide cytotoxicity assay; conditions: Homo sapiens, Mesothelioma
Excerpt: as §1

Saos-2 = assay: modified propidium iodide cytotoxicity assay; conditions: Homo sapiens, Sarcoma
Excerpt: as §1

NIH:OVCAR-3 = assay: modified propidium iodide cytotoxicity assay; conditions: Homo sapiens, Ovary
Excerpt: as §1

MEXF 462NL = assay: modified propidium iodide cytotoxicity assay; conditions: Homo sapiens, Melanoma
Excerpt: as §1

BXF 1218L = assay: modified propidium iodide cytotoxicity assay; conditions: Homo sapiens, Bladder
Excerpt: as §1

LXFA 629L = assay: modified propidium iodide cytotoxicity assay; conditions: Homo sapiens, Lung, non-small cell
Excerpt: as §1

LXFL 529L = assay: modified propidium iodide cytotoxicity assay; conditions: Homo sapiens, Lung, non-small cell
Excerpt: as §1

PXF 1118L = assay: modified propidium iodide cytotoxicity assay; conditions: Homo sapiens, Mesothelioma
Excerpt: as §1

TE671 = assay: modified propidium iodide cytotoxicity assay; conditions: Homo sapiens, TE-671, Sarcoma
Excerpt: as §1

PAXF 546L = assay: modified propidium iodide cytotoxicity assay; conditions: Homo sapiens, Pancreas
Excerpt: as §1

OVXF 899L = assay: modified propidium iodide cytotoxicity assay; conditions: Homo sapiens, Ovary
Excerpt: as §1

MAXF 401NL = assay: modified propidium iodide cytotoxicity assay; conditions: Homo sapiens, Breast
Excerpt: as §1

RXF 486L = assay: modified propidium iodide cytotoxicity assay; conditions: Homo sapiens, Kidney
Excerpt: as §1

PANC-1 = assay: modified propidium iodide cytotoxicity assay; conditions: Homo sapiens, Pancreas
Excerpt: as §1

LIXF 575L = assay: modified propidium iodide cytotoxicity assay; conditions: Homo sapiens, Liver
Excerpt: as §1

DU-145 = assay: modified propidium iodide cytotoxicity assay; conditions: Homo sapiens, Prostate
Excerpt: as §1

RXF 1781L = assay: modified propidium iodide cytotoxicity assay; conditions: Homo sapiens, Kidney
Excerpt: as §1

MEXF 276L = assay: modified propidium iodide cytotoxicity assay; conditions: Homo sapiens, MEXF276L, Melanoma
Excerpt: as §1

MKN45 = assay: modified propidium iodide cytotoxicity assay; conditions: Homo sapiens, MKN-45, Stomach
Excerpt: as §1

PC-3M = assay: modified propidium iodide cytotoxicity assay; conditions: Homo sapiens, Prostate
Excerpt: as §1

BXF 1352L = assay: modified propidium iodide cytotoxicity assay; conditions: Homo sapiens, Bladder
Excerpt: as §1

Staphylococcus aureus = assay: antimicrobial activity test; conditions: at a concentration of 1.0 mg/mL
[2] = system: panel of 12 human tumor cell lines; assay: modified propidium iodide cytotoxicity assay, panel of 12 human tumor cell lines; conditions: for IC50: geometric mean over panel of 12 human tumor cell lines, read-out: Cytotoxic potency (geometric mean IC50)
Excerpt: as §1

T-24 = assay: modified propidium iodide cytotoxicity assay; conditions: Homo sapiens, Bladder
Excerpt: as §1

SMILES: CCCCCCCCCCCC/C=C\N(NC(=O)COC)C(=O)CCCCCCCCC [Hydrazidomycin A, hydrazidomycin A]
- antimicrobial activity (Enterococcus faecalis): no antimicrobial activity
- antimicrobial activity (Bacillus subtilis): no antimicrobial activity
- IC50 ([1]; Homo sapiens): 860 nM
- IC50 ([1]; listed as (II)): 857 nM
- IC50 values in sensitive cell lines, fold lower than the mean IC50 of all cell lines tested [1]: about 4 fold
- antimicrobial activity (Pseudomonas aeruginosa): no antimicrobial activity
- antimicrobial activity (Mycobacerium vaccae): no antimicrobial activity
- antimicrobial activity (Escherichia coli): no antimicrobial activity
- IC50 (DIFI): 782 nM
- IC50 (RKO): 598 nM
- IC50 (MCF-7): 782 nM
- IC50 (CAL-27): 716 nM
- IC50 (MDA-MB-231): 286 nM
- IC50 (RXF 393NL): 1110 nM
- IC50 (GXF 251L): 144 nM
- IC50 (LXFL1121L): 2310 nM
- IC50 (HCT-116): 758 nM
- IC50 (UXF 1138L): 893 nM
- IC50 (22Rv1): 882 nM
- IC50 (MEXF 1341L): 936 nM
- IC50 (LNCaP): 957 nM
- IC50 (NCI-H460): 2310 nM
- IC50 (LXFA 526L): 1650 nM
- IC50 (LXFA 289L): 1100 nM
- IC50 (HT-29): 464 nM
- IC50 (PXF 1752L): 1190 nM
- IC50 (CXF 269L): 222 nM
- IC50 (PAXF 1657L): 1910 nM
- IC50 (PXF 698L): 982 nM
- IC50 (Saos-2): 1820 nM
- IC50 (NIH:OVCAR-3): 1100 nM
- IC50 (MEXF 462NL): 765 nM
- IC50 (BXF 1218L): 2430 nM
- IC50 (LXFA 629L): 247 nM
- IC50 (LXFL 529L): 2120 nM
- IC50 (PXF 1118L): 2400 nM
- IC50 (TE671): 898 nM
- IC50 (PAXF 546L): 660 nM
- IC50 (OVXF 899L): 1340 nM
- IC50 (MAXF 401NL): 471 nM
- IC50 (RXF 486L): 1620 nM
- IC50 (PANC-1): 933 nM
- IC50 (LIXF 575L): 349 nM
- IC50 (DU-145): 539 nM
- IC50 (RXF 1781L): 982 nM
- IC50 (MEXF 276L): 1590 nM
- IC50 (MKN45): 676 nM
- IC50 (PC-3M): 105 nM
- IC50 (BXF 1352L): 2300 nM
- antimicrobial activity (Staphylococcus aureus): no antimicrobial activity
- IC50 [2]: 370 nM

SMILES: CCCCCCC/C=C\CCCCC/C=C\N(NC(=O)COC)C(=O)CCCCCCCCC [Hydrazidomycin B, hydrazidomycin B]
- antimicrobial activity (Enterococcus faecalis): no antimicrobial activity
- antimicrobial activity (Bacillus subtilis): no antimicrobial activity
- IC50 ([1]; Homo sapiens): 10700 nM
- IC50 values in sensitive cell lines, fold lower than the mean IC50 of all cell lines tested [1]: ~8 fold
- antimicrobial activity (Pseudomonas aeruginosa): no antimicrobial activity
- antimicrobial activity (Mycobacerium vaccae): no antimicrobial activity
- antimicrobial activity (Escherichia coli): no antimicrobial activity
- IC50 (DIFI): 10200 nM
- IC50 (RKO): 13800 nM
- IC50 (MCF-7): 11000 nM
- IC50 (CAL-27): 12700 nM
- IC50 (MDA-MB-231): 5530 nM
- IC50 (RXF 393NL): 11000 nM
- IC50 (GXF 251L): 1540 nM
- IC50 (LXFL1121L): 17400 nM
- IC50 (HCT-116): 19400 nM
- IC50 (UXF 1138L): 18200 nM
- IC50 (22Rv1): 15600 nM
- IC50 (MEXF 1341L): 14900 nM
- IC50 (LNCaP): 14100 nM
- IC50 (NCI-H460): 17200 nM
- IC50 (LXFA 526L): 7070 nM
- IC50 (LXFA 289L): 12600 nM
- IC50 (HT-29): 6540 nM
- IC50 (PXF 1752L): 12700 nM
- IC50 (CXF 269L): 5940 nM
- IC50 (PAXF 1657L): 20400 nM
- IC50 (PXF 698L): 14300 nM
- IC50 (Saos-2): 18000 nM
- IC50 (NIH:OVCAR-3): 18500 nM
- IC50 (MEXF 462NL): 20400 nM
- IC50 (BXF 1218L): 19300 nM
- IC50 (LXFA 629L): 1410 nM
- IC50 (LXFL 529L): 17300 nM
- IC50 (PXF 1118L): 30000 nM
- IC50 (TE671): 18200 nM
- IC50 (PAXF 546L): 10800 nM
- IC50 (OVXF 899L): 19100 nM
- IC50 (MAXF 401NL): 876 nM
- IC50 (RXF 486L): 21200 nM
- IC50 (PANC-1): 10000 nM
- IC50 (LIXF 575L): 7390 nM
- IC50 (DU-145): 7220 nM
- IC50 (RXF 1781L): 10200 nM
- IC50 (MEXF 276L): 18300 nM
- IC50 (MKN45): 11600 nM
- IC50 (PC-3M): 1730 nM
- IC50 (BXF 1352L): 15100 nM
- IC50 (T-24): 9190 nM
- antimicrobial activity (Staphylococcus aureus): no antimicrobial activity
- IC50 [2]: 6040 nM

SMILES: CCCCC/C=C\C/C=C\CCCC/C=C\N(NC(=O)COC)C(=O)CCCCCCCCC [Hydrazidomycin C, hydrazidomycin C]
- antimicrobial activity (Enterococcus faecalis): no antimicrobial activity
- antimicrobial activity (Bacillus subtilis): no antimicrobial activity
- antimicrobial activity (Pseudomonas aeruginosa): no antimicrobial activity
- antimicrobial activity (Mycobacerium vaccae): no antimicrobial activity
- antimicrobial activity (Escherichia coli): no antimicrobial activity
- antimicrobial activity (Staphylococcus aureus): no antimicrobial activity
- IC50 [2]: > 10000 nM
- inhibition of tumor cell growth ([2]; up to a concentration of 10 µM): did not show inhibition of tumor cell growth
